The values below come from patent publication US20130236553A1, “Compositions and Methods for the Delivery of Therapeutics” (Board of Regents of the University of Nebraska, priority 2010, published 2013).

The pEC50 is the negative decadic logarithm of the EC50, by convention in mol/L.

pEC50: −log10 of the molar value.

Series [1] can be described thus: Plasma concentration after low dose SC injection of nanoparticle or free drug. The series is classed as in vivo, Mice. The conditions noted are these: 10 mg/kg SC; for concentration at 0.25 hr / concentration at 1 hr / concentration at 3 hr / concentration at 6 hr / concentration at 10 hr / concentration at 24 hr / concentration at 48 hr / concentration at 96 hr / concentration at 168 hr / concentration at 336 hr: mouse, plasma, subcutaneous. On the procedure:
Mice were also administered nanoparticles or free drug at only 10 mg/kg by SC injection.

The conditions of series [2]: cited from earlier work.
The subject of series [3] is a variety of HIV strains and host cell types. The following applies: read-out: EC50 levels for anti-HIV activity; cited from earlier work.
The conditions of series [4]: cited from earlier work. The source holds these as a separate data set.
For a further series, the system named is HIVADA. As to the kind of experiment: Antiretroviral activities of RTV (p24 staining, RT activity) in HIVADA infected MDM. In kind it is cell-based, HIV-1. The following applies: 12 hours treatment, HIV challenge day 1, read 10 days after infection. On the procedure:
Drug-treated MDMs were infected with HIVADA at a multiplicity of infection of 0.01 infectious viral particles/cell (Gendelman et al. (1988) J. Exp. Med., 167:1428-1441) on day 1 after RTV-NP treatment. Following viral infection, cells were cultured for 10 days with half media exchanges every other day. Media samples were collected 10 days after infection for measurement of progeny virion production as assayed by reverse transcriptase (RT) activity (Kalter et al. (1991) J. Immunol., 146:3396-3404). Parallel analyses for expression of HIV p24 antigen in infected cells were performed by immunostaining using p24 mouse monoclonal Ab (Dako [CA, USA]) on the same day as media sampling.
In a 96-well plate, media samples (10 μl) were mixed with 10 μl of a solution containing 100 mM Tris-HCl (pH 7.9), 300 mM KCl, 10 mM dithiothreitol, 0.1% nonyl phenoxylpolyethoxylethanol-40 (NP-40) and water. […] Following incubation, 50 μl of cold 10% TCA was added to each well; the wells were harvested onto glass fiber filters, and the filters were assessed for tritiated thymidine triphosphate incorporation by β-scintillation spectroscopy using a TopCount NX™ (PerkinElmer Inc. [MA, USA]) (Kalter et al. (1991) J. Immunol., 146:3396-3404). […]

For `COC(=O)N[C@H](C(=O)N[C@@H](Cc1ccccc1)[C@@H](O)CN(Cc1ccc(-c2ccccn2)cc1)NC(=O)[C@@H](NC(=O)OC)C(C)(C)C)C(C)(C)C` [ATV, atazanavir], in series [1], the concentration at 0.25 hr came out at 1150 ng/mL, the concentration at 1 hr amounted to 804 ng/mL, the concentration at 3 hr worked out at 2060 ng/mL and the concentration at 6 hr was 2100 ng/mL. In series [1], this compound had a concentration at 10 hr of 639 ng/mL, a concentration at 24 hr of 9.85 ng/mL, a concentration at 48 hr of 4.38 ng/mL and a concentration at 96 hr of 4.3 ng/mL. The compound further came in with a concentration at 168 hr in series [1] of 1.74 ng/mL. For the same compound, the concentration at 336 hr in series [1] (336 hr) turned out to be 0 ng/mL. The “solubility of free-base drug” value in series [2] is 4 to 5 mg/mL. The negative-log EC50 (pEC50) in series [3] was 8.30 to 8.70. Moreover, the “therapeutic human plasma levels” value in series [4] is 0.3 to 2.2 µg/mL. Besides, the “minimum human therapeutic serum level” value in series [4] (human serum) was 150 ng/mL.

As for `O=C1Nc2ccc(Cl)cc2[C@@](C#CC2CC2)(C(F)(F)F)O1` [EFV, efavirenz], the “Plasma concentration, 336 hr” value in series [1] (336 hr) is reported as “<LLOQ”. Moreover, in series [1], the concentration at 0.25 hr stood at 301 ng/mL, the concentration at 1 hr amounted to 124 ng/mL, the concentration at 3 hr worked out at 155 ng/mL and the concentration at 6 hr was found to be 213 ng/mL. Moreover, in series [1], the concentration at 10 hr came out at 40 ng/mL, the concentration at 24 hr came to 7.1 ng/mL, the concentration at 48 hr was 2.17 ng/mL and the concentration at 96 hr came to 2.99 ng/mL. Moreover, the concentration at 168 hr in series [1] is 2.57 ng/mL. Moreover, the “solubility of free-base drug” value in series [2] is 0.009 mg/mL. Moreover, the negative logarithm of the EC50 (pEC50) in series [3] was 7.60 to 8.77. Moreover, the “therapeutic human plasma levels” value in series [4] is 1.8 to 4.1 µg/mL.

Consider `CC(C)c1nc(CN(C)C(=O)N[C@H](C(=O)N[C@@H](Cc2ccccc2)C[C@H](O)[C@H](Cc2ccccc2)NC(=O)OCc2cncs2)C(C)C)cs1` [RTV, ritonavir], for which the “protection against HIV infection (p24 staining, multinucleated giant cells)” value in the series with HIVADA is “no protection against infection”. Moreover, in series [1], the concentration at 0.25 hr was found to be 1080 ng/mL, the concentration at 1 hr turned out to be 492 ng/mL, the concentration at 3 hr came to 710 ng/mL and the concentration at 6 hr turned out to be 551 ng/mL. In addition, in series [1], the concentration at 10 hr was 69.1 ng/mL, the concentration at 24 hr was 5.91 ng/mL, the concentration at 48 hr was found to be 2.36 ng/mL and the concentration at 96 hr turned out to be 4.94 ng/mL. In series [1], this compound returned a concentration at 168 hr of 2.21 ng/mL. The compound further registered a concentration at 336 hr in series [1] (336 hr) of 0 ng/mL. For the same compound, the pEC50 in series [3] was 6.70 to 7.46. In addition, the “therapeutic human plasma levels” value in series [4] is 3.5 to 9.6 µg/mL.

For the compound `CC(C)(C)NC(=O)[C@@H]1CN(Cc2cccnc2)CCN1C[C@@H](O)C[C@@H](Cc1ccccc1)C(=O)N[C@H]1c2ccccc2C[C@H]1O` [IDV, indinavir], the negative-log EC50 (pEC50) in series [3] was 7.54 to 8.30.
